The values below come from patent US7423149B2, “Substituted n-aryl amidines as selective D1 dopamine receptor antagonists for the treatment of obesity and CNS disorders” (Schering Corporation, priority 2003, dated 2008).

Bounds are passed on as bounds.

T1 sequence (P21728 whole entry): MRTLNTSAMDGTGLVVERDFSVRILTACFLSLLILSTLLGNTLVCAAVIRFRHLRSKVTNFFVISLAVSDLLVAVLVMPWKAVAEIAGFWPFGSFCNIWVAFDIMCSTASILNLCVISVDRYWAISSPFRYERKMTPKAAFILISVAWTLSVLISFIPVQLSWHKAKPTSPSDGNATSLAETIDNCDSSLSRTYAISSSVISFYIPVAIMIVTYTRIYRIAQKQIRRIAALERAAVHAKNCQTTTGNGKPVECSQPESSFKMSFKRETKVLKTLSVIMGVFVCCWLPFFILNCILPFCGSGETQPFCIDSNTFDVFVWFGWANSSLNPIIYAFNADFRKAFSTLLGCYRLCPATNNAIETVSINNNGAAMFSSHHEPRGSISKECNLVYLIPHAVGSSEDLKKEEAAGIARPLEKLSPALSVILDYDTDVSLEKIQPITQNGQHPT

The experiment has as its target T1, human Dopamine D1 receptor (Homo sapiens, UniProt P21728).
T1 construct: expressed in transfected cells; host or cells: Ltk- cells (mouse fibroblasts), membrane preparation
The experiment in a line: radioligand binding competition assay, displacement of [3H]SCH 23390 from D1 receptor (Ltk-cells membranes).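 Also: under 5 nM class also requires D2 to D1 selectivity above 500.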 Particulars: class combines Ki (D1) and, for A and B, D2:D1 selectivity (Ki D2 / Ki D1); read-out: D1 binding and D2:D1 Selectivity. The text has this: Biological Activity: Compounds from this disclosure have been biologically characterized by their ability to displace a known D1-like selective ligand, [3H]SCH 23390 from the human Dopamine D1 receptor, and a known D2-like selective ligand, [3H] Methylspiperone, from the human Dopamine D2 and D4 receptors.
Affinity values (Ki) of compounds at human dopamine receptors were ascertained using radioligand binding competition assays. Cells expressing D1 (Ltk-cells), D2 (long variant, Ltk-cells), D4 (CHO cells) and D5 (GH4C1 cells) receptors were lysed in hypotonic buffer for membrane preparation. Membranes were incubated with various concentrations of test compound and 1 nM [3H] SCH 23390 (D1 and D5) and 0.2 nM [3H] Methylspiperone for (D2 and D4) assays. Non-specific binding was defined as binding in the presence of 10 micromolar of SCH 23390 for D1 and D5 assays and 10 micromolar butaclamol for D2 and D4 assays. Following incubation to equilibrium (1 hour at room temperature), bound radioligand was separated from free by rapid filtration. Bound radioactivity on the dried filters was quantified by liquid scintillation counting.
Selectivity is determined by dividing Ki for D2, D4 or D5 receptors by Ki for D1 receptor.
In general terms: Loss of bound radioactivity is the signal in a displacement assay; it reports binding, not function.
Regarding `COc1ccc(/C=C/C(=N)Nc2cccc(C(F)(F)F)c2)cc1` [Example 1], the Ki is 50 to 10000 nM.
The value for `N=C(/C=C/c1cc(C(F)(F)F)cc(C(F)(F)F)c1)Nc1ccc(Cl)cc1` [Example 2] was 50 to 10000 nM; that for `N=C(/C=C/c1ccc(Cl)c([N+](=O)[O-])c1)Nc1ccc(Cl)cc1` [Example 3] was 50 to 10000 nM.
The value for `N=C(/C=C/c1ccc(OC(F)(F)F)cc1)Nc1ccc(Cl)cc1` [Example 4] was 50 to 10000 nM; that for `N=C(/C=C/c1ccccc1I)Nc1ccc(Cl)cc1` [Example 5] was 50 to 10000 nM.
The value for `N=C(/C=C/c1ccc(CN2CCCCC2)cc1)Nc1ccc(Cl)cc1` [Example 6] was 50 to 10000 nM; that for `CC(C)(C)c1ccc(/C=C/C(=N)Nc2ccc(Cl)cc2)cc1` [Example 7] was 10 to 50 nM.
On to `N=C(/C=C/c1ccc(Cc2cccnc2)cc1)Nc1ccc(O)cc1` [Example 8], for which the Ki lay in the range of 50 to 10000 nM.
The same measure for `COc1ccc(NC(=N)/C=C/c2ccc(Cc3cccnc3)cc2)cc1Cl` [Example 9]: 50 to 10000 nM; for `CC(C)c1ccc(/C=C/C(=N)Nc2ccc(Cl)cc2)cc1` [Example 10]: 10 to 50 nM.
With `N=C(/C=C/c1cccc2ccccc12)Nc1ccc(Cl)cc1` [Example 12], the Ki lay in the range of 50 to 10000 nM.
As to `N=C(/C=C/c1ccc(Cl)cc1Cl)Nc1ccc(Cl)cc1` [Example 13], the Ki was in the range of 10 to 50 nM.
The value for `N=C(/C=C/c1ccncc1)Nc1ccc(Cl)cc1` [Example 14] was 50 to 10000 nM; that for `N=C(/C=C/c1ccc(Cc2cccnc2)cc1)Nc1ccc2c(c1)CCC2` [Example 15] was 10 to 50 nM; that for `N=C(/C=C/c1ccc(-c2ccccc2)cc1)Nc1ccc(Cl)cc1` [Example 16] was 10 to 50 nM.
On to `COc1ccc(/C=C/C(=N)Nc2cccc(C)c2)cc1` [Example 17], for which the Ki lay within 50 to 10000 nM.
Turning to `COc1ccc(/C=C/C(=N)Nc2ccc(F)c(Cl)c2)cc1` [Example 18], the Ki fell in the range of 50 to 10000 nM.
The same measure for `N=C(/C=C/c1ccc(Cc2ccccn2)cc1)Nc1ccc(Cl)cc1` [Example 19]: 50 to 10000 nM; for `CC1CCCCN1c1ccc(/C=C/C(=N)Nc2ccc(Cl)cc2)c(Cl)c1` (stereo not shown) [Example 20]: below 10 nM; for `N=C(/C=C/c1ccc(-c2ccc3[nH]ccc3c2)cc1)Nc1ccc(Cl)cc1` [Example 21, N-(4-chloro-phenyl)-3-[4-(1H -indol-5-yl)-phenyl]-acrylamidine]: below 10 nM.
The value for `N=C(/C=C/c1ccc(Cc2cccnc2)cc1)Nc1ccc2c(c1)OCO2` [Example 22] was 50 to 10000 nM.
Consider `COc1ccc(/C=C/C(=N)Nc2ccc(Br)cc2)cc1` [Example 23], for which the Ki was 10 to 50 nM.
The value for `N=C(/C=C/c1ccc(Cc2cccnc2)cc1)Nc1ccc(Br)cc1` [Example 24] was 10 to 50 nM.
For `N=C(/C=C/c1ccc(-c2ccccn2)cc1)Nc1ccc(Cl)cc1` [Example 25], the Ki was 10 to 50 nM.
The value for `COc1ccc2cc(C(=N)Nc3ccc(Cl)cc3)ccc2c1` [Example 26] was 50 to 10000 nM; that for `COc1cccc(OC)c1/C=C/C(=N)Nc1ccc(Cl)cc1` [Example 27] was 50 to 10000 nM.
In the case of `Cc1ccc(/C=C/C(=N)Nc2ccc(Cl)cc2)cc1` [Example 28], the Ki lay in the range of 50 to 10000 nM.
The same measure for `COc1ccc(/C=C/C(=N)Nc2ccc(Cl)cc2)c(Cl)c1OC` [Example 29]: 10 to 50 nM.
With `N#Cc1cccc(-c2ccc(/C=C/C(=N)Nc3ccc(Cl)cc3)cc2)c1` [Example 30], the Ki was 10 to 50 nM.
Turning to `Cc1ccc(NC(=N)/C=C/c2ccc(Cc3cccnc3)cc2)cc1` [Example 31], the Ki was in the range of 10 to 50 nM.
As to `CC1CCCCN1c1ccc(/C=C/C(=N)Nc2ccc(Cl)cc2)cc1` (stereo not shown) [Example 32], the Ki is below 10 nM.
The value for `CN1CCN(c2ccc(/C=C/C(=N)Nc3ccc(Cl)cc3)c(Cl)c2)CC1` [Example 33] was below 10 nM.
In the case of `C[C@H]1CNCCN1c1ccc(/C=C/C(=N)Nc2ccc(Cl)cc2)c(Cl)c1` [Example 34], the Ki was below 5 nM.
The value for `N=C(/C=C/c1ccc(Cc2ccncc2)cc1)Nc1ccc(Cl)cc1` [Example 35] was 10 to 50 nM.
